The values that follow come from patent US20230150970A1, “AMINOPYRIMIDINE DERIVATIVES AND THEIR USE AS ARYL HYDROCARBON RECEPTOR MODULATORS” (DONG-A ST CO., LTD., priority 2020, published 2023).

For series [1], the target named is T1, AhR (Homo sapiens, UniProt P35869).
T1 sequence (P35869 11-848): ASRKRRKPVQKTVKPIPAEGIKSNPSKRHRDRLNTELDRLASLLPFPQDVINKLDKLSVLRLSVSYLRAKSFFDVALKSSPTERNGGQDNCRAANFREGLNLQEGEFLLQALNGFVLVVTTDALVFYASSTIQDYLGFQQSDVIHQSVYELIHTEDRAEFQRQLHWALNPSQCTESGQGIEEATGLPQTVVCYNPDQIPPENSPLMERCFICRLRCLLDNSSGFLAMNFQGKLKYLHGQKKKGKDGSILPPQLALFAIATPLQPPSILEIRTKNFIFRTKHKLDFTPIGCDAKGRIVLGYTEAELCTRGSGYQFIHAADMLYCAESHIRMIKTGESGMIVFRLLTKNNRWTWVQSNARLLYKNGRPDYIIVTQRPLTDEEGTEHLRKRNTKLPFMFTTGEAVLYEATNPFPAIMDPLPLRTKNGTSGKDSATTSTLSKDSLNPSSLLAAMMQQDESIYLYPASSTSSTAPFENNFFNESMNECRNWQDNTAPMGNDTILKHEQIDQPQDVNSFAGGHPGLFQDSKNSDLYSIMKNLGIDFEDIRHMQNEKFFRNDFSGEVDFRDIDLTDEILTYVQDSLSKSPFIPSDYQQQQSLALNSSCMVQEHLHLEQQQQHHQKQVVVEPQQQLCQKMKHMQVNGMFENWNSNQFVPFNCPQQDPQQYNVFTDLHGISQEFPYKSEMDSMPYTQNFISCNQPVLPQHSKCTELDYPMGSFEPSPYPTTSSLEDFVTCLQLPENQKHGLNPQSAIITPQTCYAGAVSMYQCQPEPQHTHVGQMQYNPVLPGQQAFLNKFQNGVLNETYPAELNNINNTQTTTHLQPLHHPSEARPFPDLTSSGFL

Series [2] has as its target T1, AhR. Put plainly: In Vitro Assay 1: XRE-luciferase reporter assay, antagonism in human cell line (HepG2). The conditions noted are these: Assay 1: AhR-Luc Human Antagonism (IC50, nM), 6 hours. A general note: Reporter assays use an easily measured gene product as a stand-in for the process of interest.
Series [3] has as its target T1, AhR. Put plainly: In Vitro Assay 3: XRE-luciferase reporter assay, agonism in human cell line (HepG2). Format: cell-based. More on the design: endogenous in cells; host or cells: HepG2. As to conditions: HepG2, tryptophan free medium, 6 hours, no agonist, read-out: Assay 3: AhR-Luc Human Agonism (EC50). As to the method:
In Vitro Assay 3: Agonism in Human Cell Line
HepG2 (human hepatoma cell line) cells co-transfected with XRE-Luc and Nano-Luc plasmids were plated in tryptophan free medium containing 1% of dialyzed fetal bovine serum and incubated overnight at 37° C. in a CO2 incubator. After 24 hours, cells were treated for 6 hours with test compounds or not. […] As a positive control, cells were incubated with TCDD.

Series [4] concerns the target T1, AhR. Put plainly: In Vitro Assay 4: endogenous AhR activity assay (CYP1A1 and CYP1B1 mRNA, qRT-PCR, HepG2 cells). (In general: Real-time PCR tracks product formation cycle by cycle.)
Method: In Vitro Assay 4: Endogenous AhR Activity Assay
HepG2 cells were seeded in 12-well plate (3×10^5 cells/well). A day after seeding, the cells were treated with TCDD (10 nM) alone or with compounds (123 nM) for 4 hours. Total RNA was extracted using Trizol (Thermo Fisher Scientific). cDNA synthesis and quantitative RT-PCR (qRT-PCR) assays were performed using PrimeScript™ RT Master Mix (TAKARA) and TB Green™ Premix Ex Taq™ II (TAKARA) in accordance with manufacturer's instruction. For the measurement of endogenous AhR activity, relative mRNA levels of CYP1A1 and CYP1B1 were quantitated relative to β-actin mRNA by the comparative Ct (ΔΔCt) method. The percent inhibitions were calculated according to:
In series [5] the target is T2, AhR (Mus musculus, UniProt P30561).
T2 sequence (P30561 1-848): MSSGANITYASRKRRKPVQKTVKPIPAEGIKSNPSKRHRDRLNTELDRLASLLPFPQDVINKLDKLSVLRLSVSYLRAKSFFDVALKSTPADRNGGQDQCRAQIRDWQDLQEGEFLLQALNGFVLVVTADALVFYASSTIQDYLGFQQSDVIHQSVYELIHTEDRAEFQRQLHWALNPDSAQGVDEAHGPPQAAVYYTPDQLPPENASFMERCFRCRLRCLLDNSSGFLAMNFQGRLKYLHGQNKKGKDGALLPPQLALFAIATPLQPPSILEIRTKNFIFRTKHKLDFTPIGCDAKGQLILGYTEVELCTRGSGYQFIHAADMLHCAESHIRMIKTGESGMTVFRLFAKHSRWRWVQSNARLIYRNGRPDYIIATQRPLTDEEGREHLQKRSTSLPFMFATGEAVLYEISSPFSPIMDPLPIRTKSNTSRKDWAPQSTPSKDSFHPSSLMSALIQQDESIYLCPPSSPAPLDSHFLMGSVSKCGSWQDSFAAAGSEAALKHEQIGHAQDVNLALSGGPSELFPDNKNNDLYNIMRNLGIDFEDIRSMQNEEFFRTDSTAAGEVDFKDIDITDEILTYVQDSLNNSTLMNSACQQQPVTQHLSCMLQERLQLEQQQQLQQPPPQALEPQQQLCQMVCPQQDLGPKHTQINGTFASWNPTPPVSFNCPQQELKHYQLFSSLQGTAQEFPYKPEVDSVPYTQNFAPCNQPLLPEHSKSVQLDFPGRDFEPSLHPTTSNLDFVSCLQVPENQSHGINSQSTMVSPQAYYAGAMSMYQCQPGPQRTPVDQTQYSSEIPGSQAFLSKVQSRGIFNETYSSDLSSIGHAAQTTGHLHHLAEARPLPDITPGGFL
Put plainly: In Vitro Assay 2: XRE-luciferase reporter assay, antagonism in mouse cell line (Hepa1c1c7). As to conditions: 6 hours, read-out: Assay 2: AhR-Luc Mouse Antagonism (IC50). It counts as cell-based. On the procedure:
In Vitro Assay 2: Antagonism in Mouse Cell Line
Hepa1c1c7 (murine liver cancer cell line) cells co-transfected with XRE-Luc and Nano-Luc plasmids were plated in complete medium and incubated overnight at 37° C. in a CO2 incubator. Following incubation, cells were treated with AhR activating ligands such as kynurenic acid, kynurenine (#) with or without test compounds for 6 hours.

Setting [6] is: values marked *: kynurenine 50 μM.
Where [7] appears, read: HepG2, read-out: CYP1A1 (% Inhibition).
Setting [8] is: HepG2, read-out: CYP1B1 (% Inhibition).
[9] abbreviates: values marked #: AhR activating ligand kynurenine.
Where [10] appears, read: unmarked values: kynurenine 200 μM.
Setting [11] is: unmarked values: AhR activating ligand kynurenic acid.

As usually defined, the IC50 is the concentration that inhibits the measured activity by half. As usually defined, the EC50 is the concentration at which the effect is half-maximal. For orientation: inhibition means the drop in the measured response relative to a control, in per cent.

Where two headings read alike, the source gives them in different places.

Regarding “4-(4-chlorophenyl)-2-(pyridin-3-yl)-6-(4-(pyrimidin-2-yl)piperazin-1-yl)pyrimidine [Example 90]”, the IC50 at AhR [1] was in the range of 10 to 100 nM.
Consider `CC[C@H](CO)Nc1cc(-c2ccc(Cl)cc2)nc(-c2cccnc2)n1` [Example 1, (R)-2-((6-(4-chlorophenyl)-2-(pyridin-3-yl)pyrimidin-4-yl)amino)butan-1-ol], for which the IC50 was 10 to 100 nM against AhR [2] (setting [6]) and 100 to 1000 nM on AhR [5] (setting [9]). For the same compound, on AhR [3] (number of the cell), the concentration giving a half-maximal response (EC50) was 12.6 nM. Moreover, the figures for the inhibition at 0.123 µM at AhR [4] (setting [7]) and at AhR [4] (setting [8]) were 60% and 92%, respectively.
As for `O=C1CN(c2cc(-c3ccc(Cl)cc3)nc(-c3cccnc3)n2)CCN1` [Example 94, 4-(6-(4-chlorophenyl)-2-(pyridin-3-yl)pyrimidin-4-yl)piperazin-2-one], the IC50 was in the range of 10 to 100 nM against AhR [2] (setting [6]) and 100 to 1000 nM at AhR [5] (setting [9]). The EC50 was more than 10000 nM at AhR [3] (class in brackets of the cell) and more than 30000 nM on AhR [3] (number of the cell). Also, the results for the inhibition at 0.123 µM at AhR [4] (setting [7]) and at AhR [4] (setting [8]) were 63.1% and 92.1%, respectively.
For the compound `CN1CCN(c2cc(-c3ccc(Cl)cc3)nc(-c3cccnc3)n2)CC1` [Example 105, 4-(4-chlorophenyl)-6-(4-methylpiperazin-1-yl)-2-(pyridin-3-yl)pyrimidine], the results for the IC50 against AhR [2] (setting [6]) and at AhR [5] (setting [9]) were less than 10 nM and 100 to 1000 nM, respectively. The EC50 on AhR [3] (class in brackets of the cell) was more than 10000 nM; on AhR [3] (number of the cell), more than 30000 nM. The inhibition at 0.123 µM at AhR [4] (setting [7]) came out at 59.2%; on AhR [4] (setting [8]), 88.4%.
In the case of `O[C@H]1CCN(c2cc(-c3ccc(Cl)cc3)nc(-c3cccnc3)n2)C1` [Example 137, (S)-1-(6-(4-chlorophenyl)-2-(pyridin-3-yl)pyrimidin-4-yl)pyrrolidin-3-ol], the IC50 against AhR [2] (setting [10]) and at AhR [5] (setting [11]) was less than 10 nM throughout. Besides, the EC50 on AhR [3] (class in brackets of the cell) is more than 10000 nM; at AhR [3] (number of the cell) it was more than 30000 nM. Further, the inhibition at 0.123 µM on AhR [4] (setting [7]) came out at 91.6%; on AhR [4] (setting [8]) it was 97.7%.
On to `OCC1CCN(c2cc(-c3ccc(C(F)(F)F)cc3)nc(-c3cccnc3)n2)CC1` [Example 226, (1-(2-(pyridin-3-yl)-6-(4-(trifluoromethyl)phenyl)pyrimidin-4-yl)piperidin-4-yl)methanol], for which the IC50 against AhR [2] (setting [10]) is less than 10 nM; on AhR [5] (setting [9]), 10 to 100 nM. Moreover, the EC50 was more than 10000 nM on AhR [3] (class in brackets of the cell) and more than 30000 nM on AhR [3] (number of the cell). The inhibition at 0.123 µM came to 108% on AhR [4] (setting [7]) and 101% at AhR [4] (setting [8]).
On to `O[C@@H]1CN(c2cc(-c3ccc(Cl)cc3)nc(-c3cccnc3)n2)C[C@@H]1F` [Example 235, (3R,4S)-1-(6-(4-chlorophenyl)-2-(pyridin-3-yl)pyrimidin-4-yl)-4-fluoropyrrolidin-3-ol], for which the IC50 against AhR [2] (setting [6]) is less than 10 nM; on AhR [5] (setting [9]), 10 to 100 nM. The EC50 on AhR [3] (number of the cell) worked out at 3560 nM. The inhibition at 0.123 µM on AhR [4] (setting [7]) is 106%; on AhR [4] (setting [8]) it was 101%.
Regarding `O=S(=O)(CCO)N1CCN(c2cc(-c3ccc(Cl)cc3)nc(-c3cccnc3)n2)CC1` [Example 239, 2-((4-(6-(4-chlorophenyl)-2-(pyridin-3-yl)pyrimidin-4-yl)piperazin-1-yl)sulfonyl)ethan-1-ol], the IC50 at AhR [2] (setting [10]) and at AhR [5] (setting [11]) was less than 10 nM each time. Moreover, the EC50 was more than 10000 nM on AhR [3] (class in brackets of the cell) and more than 30000 nM on AhR [3] (number of the cell). Also, the inhibition at 0.123 µM at AhR [4] (setting [7]) came to 108%; at AhR [4] (setting [8]), 101%.
Regarding `OCC1CCN(c2cc(-c3ccc(N4CCOCC4)cc3)nc(-c3cccnc3)n2)CC1` [Example 268, (1-(6-(4-morpholinophenyl)-2-(pyridin-3-yl)pyrimidin-4-yl)piperidin-4-yl)methanol], the IC50 at AhR [2] (setting [10]) and on AhR [5] (setting [9]) was less than 10 nM each time. Besides, the EC50 was more than 10000 nM at AhR [3] (class in brackets of the cell) and more than 30000 nM at AhR [3] (number of the cell). Besides, the inhibition at 0.123 µM on AhR [4] (setting [7]) amounted to 102%.
Regarding `O[C@H]1CCN(c2cc(-c3ccc(Cl)cc3)nc(-c3cncc(F)c3)n2)C1` [Example 323, (S)-1-(6-(4-chlorophenyl)-2-(5-fluoropyridin-3-yl)pyrimidin-4-yl)pyrrolidin-3-ol], the concentration for half-maximal inhibition (IC50) on AhR [2] (setting [10]) was less than 10 nM; on AhR [5] (setting [9]) it was 10 to 100 nM. Also, the EC50 on AhR [3] (class in brackets of the cell) was more than 10000 nM; at AhR [3] (number of the cell), more than 30000 nM. The inhibition at 0.123 µM at AhR [4] (setting [7]) turned out to be 108%; at AhR [4] (setting [8]), 99.8%.
On to `O[C@H]1CCN(c2cc(-c3ccc(C(F)(F)F)cc3)nc(-c3cncc(F)c3)n2)C1` [Example 327, (S)-1-(2-(5-fluoropyridin-3-yl)-6-(4-(trifluoromethyl)phenyl)pyrimidin-4-yl)pyrrolidin-3-ol], for which the IC50 is less than 10 nM on AhR [2] (setting [10]) and 10 to 100 nM on AhR [5] (setting [9]). For the same compound, the EC50 at AhR [3] (number of the cell) worked out at 1720 nM. The inhibition at 0.123 µM was determined as 106% on AhR [4] (setting [7]) and 101% at AhR [4] (setting [8]).
On to `O=C(CCO)N1CCN(c2cc(-c3ccc(Cl)cc3)nc(-c3cccnc3)n2)CC1` [Example 352, 1-(4-(6-(4-chlorophenyl)-2-(pyridin-3-yl)pyrimidin-4-yl)piperazin-1-yl)-3-hydroxypropan-1-one], for which the IC50 was less than 10 nM against AhR [2] (setting [10]) and 10 to 100 nM on AhR [5] (setting [9]). For the same compound, the EC50 is more than 10000 nM on AhR [3] (class in brackets of the cell) and more than 30000 nM on AhR [3] (number of the cell). Also, the inhibition at 0.123 µM on AhR [4] (setting [7]) worked out at 87.2%.
